Measurements reported in patent publication US9924716B2, “Molecules having pesticidal utility, and intermediates, compositions, and processes, related thereto” (Dow AgroSciences LLC, priority 2016, dated 2018).

What was measured:
Type in all cases: in vivo
[1] = test system: Beet Armyworm (Spodoptera exigua, LAPHEG) second instar larvae; assay: Bioassay on Beet Armyworm (BAW), 128-well diet tray assay; settings: Beet Armyworm, Table ABC Biological Results, read-out: BAW rating
Description: (§1) Certain molecules disclosed in this document were tested against BAW, CEW, and CL using procedures described in the following examples. In the reporting of the results, the “BAW, CEW, & CL Rating Table” was used (See Table Section).
Bioassays on BAW were conducted using a 128-well diet tray assay. one to five second instar BAW larvae were placed in each well (3 mL) of the diet tray that had been previously filled with 1 mL of artificial diet to which 50 μg/cm^2 of the test molecule (dissolved in 50 μL of 90:10 acetone-water mixture) had been applied (to each of eight wells) and then allowed to dry. Trays were covered with a clear self-adhesive cover and held at 25° C., 14:10 light-dark for five to seven days. Percent mortality was recorded for the larvae in each well; activity in the eight wells was then averaged. The results are indicated in the table entitled “Table ABC: Biological Results” (See Table Section).
(§2) Bioassays on BAW and CL were conducted according to the procedures outlined in Example A: Bioassays on Beet Armyworm (“BAW”) and Cabbage Looper (“CL”) using the indicated concentrations.

[2] = test system: Cabbage Looper (Trichoplusia ni, TRIPNI) second instar larvae; assay: Bioassay on Cabbage Looper (CL), 128-well diet tray assay; settings: Cabbage Looper, Table ABC Biological Results, read-out: CL rating
Description: as §1
Bioassays on CL were conducted using a 128-well diet tray assay. one to five second instar CL larvae were placed in each well (3 mL) of the diet tray that had been previously filled with 1 mL of artificial diet to which 50 μg/cm^2 of the test molecule (dissolved in 50 μL of 90:10 acetone-water mixture) had been applied (to each of eight wells) and then allowed to dry. Trays were covered with a clear self-adhesive cover and held at 25° C., 14:10 light-dark for five to seven days. Percent mortality was recorded for the larvae in each well; activity in the eight wells was then averaged. The results are indicated in the table entitled “Table ABC: Biological Results” (See Table Section).
as §2

[3] = test system: Yellow Fever Mosquito (Aedes aegypti, AEDSAE) larvae; assay: Bioassay on Yellow Fever Mosquito (YFM), 96-well plate larval assay; settings: Table ABC Biological Results
Description: Certain molecules disclosed in this document were tested against YFM using procedures described in the following paragraph. In the reporting of the results, the “GPA & YFM Rating Table” was used (See Table Section).
Master plates containing 400 μg of a molecule dissolved in 100 μL of dimethyl sulfoxide (DMSO) (equivalent to a 4000 ppm solution) are used. A master plate of assembled molecules contains 15 μL per well. To this plate, 135 μL of a 90:10 water:acetone mixture is added to each well. A robot (Biomek® NXP Laboratory Automation Workstation) is programmed to dispense 15 μL aspirations from the master plate into an empty 96-well shallow plate (“daughter” plate). There are 6 reps (“daughter” plates) created per master. The created daughter plates are then immediately infested with YFM larvae.
The day before plates are to be treated, mosquito eggs are placed in Millipore water containing liver powder to begin hatching (4 g. into 400 mL). After the daughter plates are created using the robot, they are infested with 220 μL of the liver powder/larval mosquito mixture (about 1 day-old larvae). After plates are infested with mosquito larvae, a non-evaporative lid is used to cover the plate to reduce drying. Plates are held at room temperature for 3 days prior to grading. After 3 days, each well is observed and scored based on mortality. The results are indicated in the table entitled “Table ABC: Biological Results” (See Table Section).

C[C@H](NC(=O)CCC(F)(F)F)NC(=O)c1ccc(/C(F)=C/C(c2cc(Br)cc(Br)c2)C(F)(F)F)cc1C(F)(F)F (stereo partly drawn) [F23, 4-((Z)-3-(3,5-Dibromophenyl)-1,4,4,4-tetrafluorobut-1-en-1-yl)-N—((R)-1-(4,4,4-trifluorobutanamido)ethyl)-2-(trifluoromethyl)benzamide]
pest or weed control at 50 µg/cm2 [1]: 50 to 100% | pest or weed control at 50 µg/cm2 [2]: 50 to 100% | YFM rating [3]: A (80-100)

C[C@H](NC(=O)CC(F)(F)F)NC(=O)c1ccc(/C(F)=C/C(c2cc(Cl)cc(Cl)c2)C(F)(F)F)cc1C(F)(F)F (stereo partly drawn) [F11, 4-((Z)-3-(3,5-dichlorophenyl)-1,4,4,4-tetrafluorobut-1-en-1-yl)-2-(trifluoromethyl)-N—((R)-1-(3,3,3-trifluoropropanamido)ethyl)benzamide]
pest or weed control at 50 µg/cm2 [1]: 50 to 100% | pest or weed control at 50 µg/cm2 [2]: 50 to 100% | YFM rating [3]: A (80-100)

C[C@H](NC(=O)CC(F)(F)F)NC(=O)c1ccc(/C(F)=C/C(c2cc(Br)c(Cl)c(Br)c2)C(F)(F)F)cc1C(F)(F)F (stereo partly drawn) [F26, 4-((Z)-3-(3,5-Dibromo-4-chlorophenyl)-1,4,4,4-tetrafluorobut-1-en-1-yl)-2-(trifluoromethyl)-N—((R)-1-(3,3,3-trifluoropropanamido)ethyl)benzamide]
pest or weed control at 50 µg/cm2 [1]: 50 to 100% | pest or weed control at 50 µg/cm2 [2]: 50 to 100% | YFM rating [3]: A (80-100)

C[C@H](NC(=O)CC(F)(F)F)NC(=O)c1ccc(/C(F)=C/C(c2cc(Br)cc(Br)c2)C(F)(F)F)cc1C(F)(F)F (stereo partly drawn) [F22, 4-((Z)-3-(3,5-Dibromophenyl)-1,4,4,4-tetrafluorobut-1-en-1-yl)-2-(trifluoromethyl)-N—((R)-1-(3,3,3-trifluoropropanamido)ethyl)benzamide]
pest or weed control at 50 µg/cm2 [1]: 50 to 100% | pest or weed control at 50 µg/cm2 [2]: 50 to 100% | YFM rating [3]: A (80-100)

C=Cc1c(Cl)cc(C(/C=C(\F)c2ccc(C(=O)N[C@H](C)NC(=O)CC(F)(F)F)c(C(F)(F)F)c2)C(F)(F)F)cc1Cl (stereo partly drawn) [F18, 4-((Z)-3-(3,5-Dichloro-4-vinylphenyl)-1,4,4,4-tetrafluorobut-en-1-yl)-2-(trifluoromethyl)-N—((R)-1-(3,3,3-trifluoropropanamido)ethyl)benzamide]
pest or weed control at 50 µg/cm2 [1]: 50 to 100% | pest or weed control at 50 µg/cm2 [2]: 50 to 100% | YFM rating [3]: A (80-100)

C[C@H](NC(=O)CCC(F)(F)F)NC(=O)c1ccc(/C(F)=C/C(c2cc(Cl)cc(Cl)c2)C(F)(F)F)cc1C(F)(F)F (stereo partly drawn) [F12, 4-((Z)-3-(3,5-Dichlorophenyl)-1,4,4,4-tetrafluorobut-1-en-1-yl)-N—((R)-1-(4,4,4-trifluorobutanamido)ethyl)-2-(trifluoromethyl)benzamide]
pest or weed control at 50 µg/cm2 [1]: 50 to 100% | pest or weed control at 50 µg/cm2 [2]: 50 to 100% | YFM rating [3]: A (80-100)

C[C@H](NC(=O)CC(F)(F)F)NC(=O)c1ccc(/C(F)=C/C(c2ccc(Cl)c(F)c2)C(F)(F)F)cc1C(F)(F)F (stereo partly drawn) [PF2, 4-((Z)-3-(4-Chloro-3-fluorophenyl)-1,4,4,4-tetrafluorobut-1-en-1-yl)-2-(trifluoromethyl)-N—((R)-1-(3,3,3-trifluoropropanamido)ethyl)benzamide]
pest or weed control at 50 µg/cm2 [1]: 50 to 100% | pest or weed control at 50 µg/cm2 [2]: 50 to 100% | YFM rating [3]: A (80-100)

C[C@H](NC(=O)CCC(F)(F)F)NC(=O)c1ccc(/C(F)=C/C(c2cc(Br)c(Cl)c(Br)c2)C(F)(F)F)cc1C(F)(F)F (stereo partly drawn) [F30, 4-((Z)-3-(3,5-Dibromo-4-chlorophenyl)-1,4,4,4-tetrafluorobut-1-en-1-yl)-N—((R)-1-(4,4,4-trifluorobutanamido)ethyl)-2-(trifluoromethyl)benzamide]
pest or weed control at 50 µg/cm2 [1]: 50 to 100% | pest or weed control at 50 µg/cm2 [2]: 50 to 100% | YFM rating [3]: A (80-100)

C[C@H](NC(=O)CC(F)(F)F)NC(=O)c1ccc(/C(F)=C/C(c2ccc(Cl)c(Cl)c2)C(F)(F)F)cc1C(F)(F)F (stereo partly drawn) [F13, 4-((Z)-3-(3,4-Dichlorophenyl)-1,4,4,4-tetrafluorobut-1-en-1-yl)-2-(trifluoromethyl)-N—((R)-1-(3,3,3-trifluoropropanamido)ethyl)benzamide]
pest or weed control at 50 µg/cm2 [1]: 50 to 100% | pest or weed control at 50 µg/cm2 [2]: 50 to 100% | YFM rating [3]: A (80-100)

C=Cc1c(Cl)cc(C(/C=C(\F)c2ccc(C(=O)N[C@H](C)NC(=O)CCC(F)(F)F)c(C(F)(F)F)c2)C(F)(F)F)cc1Cl (stereo partly drawn) [F19, 4-((Z)-3-(3,5-Dichloro-4-vinylphenyl)-1,4,4,4-tetrafluorobut-1-en-1-yl)-N—((R)-1-(4,4,4-trifluorobutanamido)ethyl)-2-(trifluoromethyl)benzamide]
pest or weed control at 50 µg/cm2 [1]: 50 to 100% | pest or weed control at 50 µg/cm2 [2]: 50 to 100% | YFM rating [3]: A (80-100)

C[C@H](NC(=O)CC(F)(F)F)NC(=O)c1ccc(/C(F)=C/C(c2cc(Cl)c(Cl)c(Cl)c2)C(F)(F)F)c2ccccc12 (stereo partly drawn) [PF1, 4-((Z)-1,4,4,4-Tetrafluoro-3-(3,4,5-trichlorophenyl)but-1-en-1-yl)-N—((R)-1-(3,3,3-trifluoropropanamido)ethyl)-1-naphthamide]
pest or weed control at 50 µg/cm2 [1]: 50 to 100% | pest or weed control at 50 µg/cm2 [2]: 50 to 100% | YFM rating [3]: B (More than 0-Less than 80)

Cc1cc(C(/C=C(\F)c2ccc(C(=O)N[C@H](C)NC(=O)CC(F)(F)F)c(C(F)(F)F)c2)C(F)(F)F)cc(Cl)c1Cl (stereo partly drawn) [PF4, 4-((Z)-3-(3,4-Dichloro-5-methylphenyl)-1,4,4,4-tetrafluorobut-1-en-1-yl)-2-(trifluoromethyl)-N—((R)-1-(3,3,3-trifluoropropanamido)ethyl)benzamide]
pest or weed control at 50 µg/cm2 [1]: 50 to 100% | pest or weed control at 50 µg/cm2 [2]: 50 to 100% | YFM rating [3]: B (More than 0-Less than 80)

C[C@H](NC(=O)CCC(F)(F)F)NC(=O)c1ccc(/C(F)=C/C(c2cc(Cl)c(Br)c(Cl)c2)C(F)(F)F)cc1C(F)(F)F (stereo partly drawn) [F15, 4-((Z)-3-(4-Bromo-3,5-dichlorophenyl)-1,4,4,4-tetrafluorobut-1-en-1-yl)-N—((R)-1-(4,4,4-trifluorobutanamido)ethyl)-2-(trifluoromethyl)benzamide]
pest or weed control at 50 µg/cm2 [1]: 50 to 100% | pest or weed control at 50 µg/cm2 [2]: 50 to 100% | YFM rating [3]: A (80-100)
